Test results reported in article PMC11582173, “Synthesis, cytotoxicity, anti-inflammatory, anti-metastatic and anti-oxidant activities of novel chalcones incorporating 2-phenoxy-N-arylacetamide and thiophene moieties: induction of apoptosis in MCF7 and HEP2 cells” (Naunyn-Schmiedeberg's Archives of Pharmacology, 2024).
In brackets after ≈: the same amount, converted by molar mass.

Tests used:
[1] = test system: human laryngeal carcinoma (HEP2) cells; assay: SRB cytotoxic assay, HEP2; format: cell-based; settings: HEp-2, 48 h
Protocol: All the prepared compounds were screened at a concentration of 100 µg/mL against six different human cell lines: human laryngeal carcinoma (HEP2), human colorectal carcinoma (HCT116), human breast carcinoma (MCF7), human Lung carcinoma (A549), human liver carcinoma (HEPG2), and normal African Green monkey kidney cell line (VERO). Doxorubicin was used as a positive control for comparison purposes.
The human laryngeal carcinoma (HEP2), colorectal carcinoma (HCT116), breast carcinoma (MCF7), Lung carcinoma (A549), liver carcinoma (HEPG2), and normal African Green monkey kidney cell line (VERO) were purchased from American Tissue Culture Collection (Rockville, MD, USA). The cells were treated for 48 h with a single dose (100 µg/mL) of all the tested chalcones. […] In brief, the cells were seeded in a 96-well microtiter plate at a concentration of 5×10^3 cells/well in 100 µL fresh RPMI-1640 medium and left to attach to the plates for 24 h. Then, cells were incubated with 100 μL of different concentrations (50, 25, 12.5, 6.25, and 0.0 µg/mL) of 5c in triplicate at 37 °C for 48 h. After that, the cells were fixed with 10 µL cold 100% Trichloroacetic acid (TCA) for 1h at 4 °C. The wells were then washed 1 time with distilled water using (automatic Tecan washer, Germany) and stained for 30 min at room temperature with 50 µL 0.4% SRB dissolved in 1% acetic acid. The plates were air-dried and the dye was solubilized with 100 µl/well of 1M tris base (pH 10.5) for 5 min. The optical density (O.D.) of each well was measured spectrophotometrically at 570 nm with an ELISA microplate reader (Sunrise Tecan reader, Germany) with automatic shaking for 30 seconds before reading. The mean background absorbance was subtracted automatically and mean values for each drug concentration were calculated. The percentage of cell survival was calculated as follows: Survival fraction= O.D. (treated cells)/ O.D. (control cells) (Bhat et al. [2023]).

IL-1B gene = assay: Real-time PCR, IL-1B gene expression; format: cell-based, human; settings: relative to untreated control (1)
Protocol: The expression level of the following six genes (Ki-67, Survivin, Interleukin-1 beta (IL-1B), Interleukin-6 (IL-6), Cyclooxygenase-2 (COX-2) and protein kinase B (AKT1)) was determined in MCF7 and HEP2 treated with the IC50 of compound 5c. The untreated cells were used as a negative control for comparison purposes. […] Ki-67 is a popular proliferation marker for human tumor cells. […] Survivin is an inhibitor of apoptotic protein (IAP) family member, which is essential for cell division. The lowering of the expression of survivin inhibited tumor development, triggered apoptosis, and made tumor cells more susceptible to radiation and chemotherapy (Albadari and Li [2023]). […] IL-1B is a pleiotropic mediator of inflammation, which is produced in response to a variety of stressors (Aarreberg et al. [2019]). […] IL-6 is a pro-inflammatory cytokine that plays a significant role in the proliferation and differentiation of human cells. It promotes the production of numerous proteins involved in acute inflammation (Uciechowski and Dempke [2020]). […]
The expression level of the following six genes (Ki-67, survivin, AKT1, IL-6, COX2, and IL-1B) was examined using real-time polymerase chain reaction (qPCR) (Mohamed et al. [2023a]). […] The cycle threshold (Ct) was determined automatically. […]

With COc1ccc(NC(=O)COc2ccc(C=CC(=O)c3cccs3)cc2)cc1 [Compound 5c, N-(4-Methoxyphenyl)-2-(4-(3-oxo-3-(thiophen-2-yl)prop-1-en-1-yl)phenoxy)acetamide] the IC50 [1] was 12 µg/mL (≈ 30.5 µM), the inhibition at 100 µg/mL ([1]; single dose 100 µg/mL, read-out: %Inhibition at100 µg/mL HEP2) was greater than 75% and the IL-1B expression folding (IL-1B gene; HEP2 cells treated with IC50 of 5c) was 0.461±0.069 fold. For the same compound, the IL-1B expression folding (IL-1B gene; MCF7 cells treated with IC50 of 5c) was 0.4008±0.116 fold.
